Assay results from patent US10927375B1, “Compositions and methods to reduce beta-agonist-mediated tachyphylaxis” (University of South Florida, priority 2018, dated 2021).
“Also recorded” adds a separate entry of the source.

Experiments:
[1] = system: let-7f miRNA expression in HASM cells; experiment: let-7f miRNA expression in cultured HASM cells by quantitative RT-PCR; format: cell-based, human; conditions: for change in let-7f miRNA expression after treatment with the agent: 18 h at 37° C., asthmatic and nonasthmatic HASM cells, ISO 30 μM, forskolin 10 mM, dibutyryl-cAMP 100 mM as printed
ADRB2 mRNA = ADRB2 mRNA in D9 HASM cells by RT-PCR; conditions: 18 h ISO
Method: (§1) The immortalized HASM cell line denoted D9 hTERT was developed as described (22), and was grown in the same manner. […] In some experiments, pretreatment with 10 μM N-(2-[p-bromocinnamylamino]ethyl)-5-isoquinoline-sulfonamide (H89) occurred for 1 h prior to the aforementioned treatments.
RT-PCR was performed using a LightCycler 96 system (Roche, Basel, Switzerland) and TaqMan polymerase (Applied Biosystems, Foster City, Calif., USA) as previously described (26, 27). The RT reactions utilized Oligo d(T)16 for ADRB2 and glyceraldehyde-3 phosphate dehydrogenase (control), and the primers included with the TaqMan MicroRNA assay (Applied Biosystems) for the reaction with let-7f and U6 snRNA (control). […] Quantitation of transcripts was made by the 22DCt method (28, 29).

β2AR [2] = conditions: stably transfected HEK 293 cells greatly overexpressing β2ARs (ref. 40); cited from earlier work
β2AR [3] = conditions: incubating cells with dibutyryl-cAMP and forskolin (ref. 37); cited from earlier work
β2AR [4] = target: β2AR (Homo sapiens, UniProt P07550); experiment: β2AR protein expression / agonist-promoted down-regulation in HASM cells (Western blot, radioligand binding)
Method: as §1
HASM cells in 6-well plates were transfected using Lipofectamine 2000 (Thermo Fisher Scientific, Waltham, Mass., USA) as described in detail elsewhere (22, 23). Cells were in a final volume of 1.0 ml and the indicated constructs along with 10 ml of Lipofectamine 2000 were added to initiate the transfection. The constructs and final concentrations were: cAMP receptor element-binding protein [CREB (in pcDNA3, 4 μg/ml)], siCREB (40 nM of siGenome SmartPool; Dharmacon, Lafayette, Colo., USA), and to inhibit let-7f, a competitive inhibitor (Dharmacon) that binds to let-7f (24, 25) at a final concentration of 40 nM (24, 25). The cells were studied 48 h after transfection. […] Secondary antibody for chemoluminescence (Thermo Fisher Scientific) was at a titer of 1:10,000. ChemiDoc (Bio-Rad, Hercules, Calif., USA) was used to detect bands, which were quantitated using ImageJ (National Institutes of Health, Bethesda, Md., USA).
Radioligand binding. Confluent cells in 10 cm dishes were washed 3 times with cold PBS followed by disruption with a cell scraper in buffer consisting of 5 mM Tris and 2 mM EDTA at 4° C. (pH 7.4). Crude membranes were collected by centrifugation at 30,000 g for 15 min at 4° C., and resuspended in assay buffer consisting of 75 mM Tris, 12 mM MgCl2, and 5 mM EDTA at 25° C. (pH 7.4). […] After incubation for 1.5 h at 25° C., bound radioligands were separated from free radioligands by rapid dilution and vacuum filtration with buffer containing 15 ml of 5 mM Tris and 2 mM EDTA at 25° C. (pH 7.4) over Whatman GF/C filters (GE Healthcare Bio-Sciences, Piscataway, N.J., USA) using a Brandel cell harvester (Brandel, Gaithersberg, Md., USA). Specific binding was divided by the added cell membrane protein and β2AR expression stated as femtomoles per milligram.

For CC(C)NCC(O)c1ccc(O)c(O)c1 (centres unmarked) [ISO, isoproterenol], the “change in let-7f miRNA expression after treatment with the agent” value [1] was “increased”, the “increase in let-7f miRNA expression” value ([1]; 18 h exposure to ISO (30 μM), both asthmatic and non-asthmatic HASM cells) was about 3 fold and the “change in ADRB2 mRNA due to ISO exposure” value (ADRB2 mRNA) was “not altered; also recorded: not found to be changed”.

For CCCC(=O)Nc1ncnc2c1ncn2[C@@H]1O[C@@H]2COP(=O)(O)O[C@H]2[C@H]1OC(=O)CCC [dibutyryl-cAMP], the “degree of β2AR down-regulation compared with that of ISO” value (β2AR [2]) is given as “relatively small degree”, the “β2AR down-regulation relative to β-agonists” value (β2AR [3]) is given as “nearly the same extent” and the “change in let-7f miRNA expression after treatment with the agent” value [1] is given as “increased”.

With O=S(=O)(NCCNCC=Cc1ccc(Br)cc1)c1cccc2cnccc12 [H89] the “effect of H89 on ISO-promoted increase in let-7f” value ([1]; 10 μM H89 pretreatment 1 h, then ISO 18 h, asthmatic and non-asthmatic HASM cells) was “blocked; also recorded: inhibited”, the “effect of H89 on forskolin-promoted increase in let-7f” value ([1]; 10 μM H89 pretreatment 1 h, then forskolin 18 h, asthmatic and non-asthmatic HASM cells) was “blocked; also recorded: inhibited” and the “effect of H89 on dibutyryl-cAMP-promoted increase in let-7f” value ([1]; 10 μM H89 pretreatment, then dibutyryl-cAMP 18 h, HASM cells) was “blocked”.

B1: let-7f inhibitor: competitive inhibitor (Dharmacon) that binds to let-7f; Cat. No. IH-30048-07, SEQ ID NO: 14 (nucleic acid)
chain: UCAGAGUGAGGUAGUAGAUUGUAUAGUUGUGGGGUAGUGAUUUUACCCUGUUCAGGAGAUAACUAUACAAUCUAUUGCCUUCCCUGA
modifications: commercial inhibitor, chemistry not given here
For B1, the “attenuation of agonist-promoted β2AR down-regulation” value (β2AR [4]; let-7f or CREB silenced, chronic agonist) was “about 50%” and the “effect on ISO-promoted β2AR down-regulation” value (β2AR [4]; transfection 40 nM 48 h, then ISO 18 h) was “attenuates; also recorded: markedly attenuated”.
